Key:
FLT3 = biological target: T1, FLT3 (Homo sapiens, UniProt P36888); test: TR-FRET kinase activity assay, FLT3; assay type: biochemical; details: ATP at Km, 60 minutes
T1 sequence (P36888 27-993): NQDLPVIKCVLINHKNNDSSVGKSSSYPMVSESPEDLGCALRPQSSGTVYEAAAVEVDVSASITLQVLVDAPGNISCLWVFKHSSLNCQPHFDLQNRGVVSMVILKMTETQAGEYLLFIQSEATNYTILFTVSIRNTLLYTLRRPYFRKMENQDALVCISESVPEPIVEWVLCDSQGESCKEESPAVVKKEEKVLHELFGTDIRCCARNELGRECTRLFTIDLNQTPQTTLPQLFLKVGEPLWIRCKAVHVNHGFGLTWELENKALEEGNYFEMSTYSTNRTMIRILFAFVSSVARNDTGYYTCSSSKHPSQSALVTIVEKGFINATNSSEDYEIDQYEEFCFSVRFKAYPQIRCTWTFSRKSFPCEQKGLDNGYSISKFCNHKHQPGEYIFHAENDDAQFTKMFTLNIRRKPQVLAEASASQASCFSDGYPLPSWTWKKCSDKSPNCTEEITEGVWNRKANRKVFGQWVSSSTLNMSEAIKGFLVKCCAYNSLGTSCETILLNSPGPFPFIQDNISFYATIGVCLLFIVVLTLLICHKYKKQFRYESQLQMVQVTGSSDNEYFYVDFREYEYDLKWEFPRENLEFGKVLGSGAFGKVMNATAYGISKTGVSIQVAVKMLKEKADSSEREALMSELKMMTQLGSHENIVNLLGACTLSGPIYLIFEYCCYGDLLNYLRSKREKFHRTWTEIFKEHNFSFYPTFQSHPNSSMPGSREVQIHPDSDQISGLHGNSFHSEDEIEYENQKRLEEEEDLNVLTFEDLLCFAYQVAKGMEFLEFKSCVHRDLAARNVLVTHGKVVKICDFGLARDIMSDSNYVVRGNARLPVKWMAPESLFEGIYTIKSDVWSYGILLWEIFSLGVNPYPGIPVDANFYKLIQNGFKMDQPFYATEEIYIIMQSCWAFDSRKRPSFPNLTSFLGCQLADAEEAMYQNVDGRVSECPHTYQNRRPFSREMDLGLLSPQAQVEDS
Protocol: (§1) IC50 values for compound inhibition of AXL, FLT3, MERTK and TYRO3 activity were determined by using a TR-FRET activity assay. A polypeptide substrate with a fluorescent label is phosphorylated on a tyrosine by each enzyme, where the now phosphorylated product is bound by a Europium-labeled antibody specific to that phosphorylation site. The proximity between the antibody and the substrate gives a signal known as TR-FRET. As the enzyme is inhibited by compound, less phosphorylated peptide product is made causing a decrease in overall signal.
(§2) Activity assays were performed in a 384-well, small volume, black microplates in an active enzyme volume of 10 μL and final developed volume of 20 μL. Final assay conditions are 50 mM HEPES pH 7.5, 10 mM MgCl2, 1 mM EGTA, 0.01% Brij 35 and 1 mM DTT all at RT. Enzyme, substrate labeled peptide and compound are mixed, and then the reaction is initiated with the addition of ATP at Km concentration for each enzyme. The reaction is allowed to run 60 minutes and then quenched with a 12.5 mM EDTA (ethylenediamine tetraacetic acid) solution. The plate is then developed with the addition of Europium labeled antibody for a final volume of 20 μL and is then incubated for 30 minutes in darkness. Plates are read in a Pherastar plate reader. Data is analyzed in GraphPad PRISM.
(§3) The results of these assays are shown in Table 1, below, wherein “No.” designates compound number (FIG. 1); “A” represents a value of ≤100 nM; “B” a value of >100 nM and ≤1 μM; “C” a value of >1 μM and ≤10 μM; “D” a value of >10 μM; “ND” is not determined. The ratio of Mer to FLT3 is calculated as follows: FLT3 IC50/Mer IC50. “+” represents a ratio of >2.0 and <10; “++” represents a ratio of between 10 and 100; and “+++” represents a ratio of >100.

TYRO3 = biological target: T2, TYRO3 (Homo sapiens, UniProt Q06418); test: TR-FRET kinase activity assay, TYRO3; assay type: biochemical; details: ATP at Km, 60 minutes
T2 sequence (Q06418 41-890): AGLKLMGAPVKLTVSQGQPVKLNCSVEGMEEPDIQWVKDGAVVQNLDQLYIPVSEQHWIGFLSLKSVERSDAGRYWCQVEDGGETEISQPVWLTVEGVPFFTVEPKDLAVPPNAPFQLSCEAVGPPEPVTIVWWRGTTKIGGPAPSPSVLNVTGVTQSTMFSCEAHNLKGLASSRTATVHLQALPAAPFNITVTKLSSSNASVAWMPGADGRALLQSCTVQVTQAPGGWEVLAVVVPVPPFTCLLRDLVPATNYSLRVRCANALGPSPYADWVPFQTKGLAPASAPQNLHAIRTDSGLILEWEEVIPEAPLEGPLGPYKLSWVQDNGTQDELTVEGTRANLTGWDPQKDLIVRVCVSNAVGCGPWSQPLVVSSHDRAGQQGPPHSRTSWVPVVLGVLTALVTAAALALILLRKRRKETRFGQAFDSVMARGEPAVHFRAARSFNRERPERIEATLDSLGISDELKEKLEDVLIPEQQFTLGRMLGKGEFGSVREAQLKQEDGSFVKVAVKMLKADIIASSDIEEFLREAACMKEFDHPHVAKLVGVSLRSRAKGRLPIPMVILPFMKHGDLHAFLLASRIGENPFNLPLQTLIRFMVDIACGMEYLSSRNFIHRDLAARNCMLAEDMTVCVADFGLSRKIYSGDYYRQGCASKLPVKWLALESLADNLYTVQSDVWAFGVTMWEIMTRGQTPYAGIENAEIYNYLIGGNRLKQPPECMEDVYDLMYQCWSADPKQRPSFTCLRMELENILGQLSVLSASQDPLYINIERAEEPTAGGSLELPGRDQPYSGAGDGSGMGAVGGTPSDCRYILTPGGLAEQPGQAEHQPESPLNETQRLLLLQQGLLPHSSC
Protocol: as §1, §2, §3

Row | SMILES | IC50 (FLT3) [nM] | IC50 (TYRO3) [nM]
1 | COC[C@H](C)Nc1ncc2c(-c3ccc(C(=O)NC(C)C)nc3)cc([C@H]3CC[C@H](O)CC3)n2n1 [Compound 228, 5-(7-((1r,4S)-4-hydroxycyclohexyl)-2-(((S)-1-methoxypropan-2-yl)amino)pyrrolo[2,1-f][1,2,4]triazin-5-yl)-N-isopropylpicolinamide] | 1000 to 10000 | ≤ 100
2 | COC[C@H](C)Nc1ncc2c(-c3cncc(C(=O)N4CCOCC4)c3)cc([C@H]3CC[C@H](O)CC3)n2n1 [Compound 233] | 1000 to 10000 | ≤ 100
3 | COC[C@H](C)Nc1ncc2c(-c3cnn(CC(=O)NC(C)C)c3)cc([C@H]3CC[C@H](O)CC3)n2n1 [Compound 235] | 1000 to 10000 | ≤ 100
4 | COC[C@H](C)Nc1ncc2c(-c3cnn(CC(=O)N[C@H]4CCOC4)c3)cc([C@H]3CC[C@H](O)CC3)n2n1 [Compound 237] | 100 to 1000 | ≤ 100
5 | COC[C@H](C)Nc1ncc2c(-c3cnn(CC(=O)N(C)C)c3)cc([C@H]3CC[C@H](O)CC3)n2n1 [Compound 238] | 100 to 1000 | ≤ 100
6 | COC[C@H](C)Nc1ncc2c(-c3cnn(CC(=O)N4CCCC4)c3)cc([C@H]3CC[C@H](O)CC3)n2n1 [Compound 239] | 100 to 1000 | ≤ 100
7 | CNC(=O)c1cncc(-c2cc([C@H]3CC[C@H](O)CC3)n3nc(N[C@@H](C)COC)ncc23)c1 [Compound 245] | 1000 to 10000 | ≤ 100
8 | COC[C@H](C)Nc1ncc2c(-c3cncc(C(N)=O)c3)cc([C@H]3CC[C@H](O)CC3)n2n1 [Compound 247] | 1000 to 10000 | ≤ 100
9 | COC[C@H](C)Nc1ncc2c(-c3ccc4c(c3)NC(=O)C4)cc([C@H]3CC[C@H](O)CC3)n2n1 [Compound 249] | 100 to 1000 | ≤ 100
10 | COC[C@H](C)Nc1ncc2c(-c3ccc4c(c3)CNC4=O)cc([C@H]3CC[C@H](O)CC3)n2n1 [Compound 252] | 100 to 1000 | ≤ 100
11 | COCC(C)Nc1ncc2c(-c3cccc(C)n3)cc(C3CCC(O)CC3)n2n1 (stereo not drawn) [Compound 253] | 1000 to 10000 | ≤ 100
12 | CC(CCOC(F)F)Nc1ncc2c(-c3ccc(CN4CCOCC4)cc3)cc(C3CCC(O)CC3)n2n1 (stereo not drawn) [Compound 255] | ≤ 100 | ≤ 100
13 | COC[C@H](C)Nc1ncc2c(-c3ccnc(N4CCN(C)CC4)c3)cc([C@H]3CC[C@H](O)CC3)n2n1 [Compound 256] | 100 to 1000 | ≤ 100
14 | COC[C@H](C)Nc1ncc2c(-c3cc(C)ccn3)cc([C@H]3CC[C@H](O)CC3)n2n1 [Compound 257] | 1000 to 10000 | 100 to 1000

Other lines, results leading:

Row | IC50 (FLT3) [nM] | IC50 (TYRO3) [nM] | SMILES
15 | 100 to 1000 | ≤ 100 | COC[C@H](C)Nc1ncc2c(-c3cccc(CN4CC[C@@H](F)C4)c3)cc([C@H]3CC[C@H](O)CC3)n2n1 [Compound 224]
16 | 100 to 1000 | ≤ 100 | COCC(C)Nc1ncc2c(-c3cccc(CN4CCC(F)C4)c3)cc(C3CCC(O)CC3)n2n1 (stereo not drawn) [Compound 225]
17 | 100 to 1000 | ≤ 100 | COC[C@H](C)Nc1ncc2c(-c3ccc(C(=O)N4CCN(C)CC4)nc3)cc([C@H]3CC[C@H](O)CC3)n2n1 [Compound 226]
18 | 1000 to 10000 | ≤ 100 | COC[C@H](C)Nc1ncc2c(-c3ccc(C(=O)N4CCOCC4)nc3)cc([C@H]3CC[C@H](O)CC3)n2n1 [Compound 227]
19 | 100 to 1000 | ≤ 100 | COC[C@H](C)Nc1ncc2c(-c3ccc(CN4CCOCC4)nc3)cc([C@H]3CC[C@H](O)CC3)n2n1 [Compound 230]
20 | 1000 to 10000 | ≤ 100 | COC[C@H](C)Nc1ncc2c(-c3cncc(C)c3)cc([C@H]3CC[C@H](O)CC3)n2n1 [Compound 231]
21 | 1000 to 10000 | ≤ 100 | COC[C@H](C)Nc1ncc2c(-c3cncc(C(=O)N4CCCC4)c3)cc([C@H]3CC[C@H](O)CC3)n2n1 [Compound 232]
22 | 1000 to 10000 | ≤ 100 | COC[C@H](C)Nc1ncc2c(-c3cncc(C(=O)N4CCN(C)CC4)c3)cc([C@H]3CC[C@H](O)CC3)n2n1 [Compound 234]
23 | 100 to 1000 | ≤ 100 | COC[C@H](C)Nc1ncc2c(-c3cnn(CC(=O)N4CCN(C)CC4)c3)cc([C@H]3CC[C@H](O)CC3)n2n1 [Compound 240]
24 | 100 to 1000 | ≤ 100 | CNC(=O)Cn1cc(-c2cc([C@H]3CC[C@H](O)CC3)n3nc(N[C@@H](C)COC)ncc23)cn1 [Compound 241]
25 | 100 to 1000 | ≤ 100 | COC[C@H](C)Nc1ncc2c(-c3cnn([C@@H]4CCOC4)c3)cc([C@H]3CC[C@H](O)CC3)n2n1 [Compound 242]
26 | 100 to 1000 | ≤ 100 | COC[C@H](C)Nc1ncc2c(-c3cnn([C@H]4CCOC4)c3)cc([C@H]3CC[C@H](O)CC3)n2n1 [Compound 243]
27 | ≤ 100 | ≤ 100 | CC(CCF)Nc1ncc2c(-c3ccc(CN4CCOCC4)cc3)cc(C3CCC(O)CC3)n2n1 (stereo not drawn) [Compound 244]
28 | 100 to 1000 | ≤ 100 | COC[C@H](C)Nc1ncc2c(-c3ccc(C)nc3)cc([C@H]3CC[C@H](O)CC3)n2n1 [Compound 246]
29 | 1000 to 10000 | ≤ 100 | COC[C@H](C)Nc1ncc2c(-c3cn(C[Si](C)(C)C)nn3)cc([C@H]3CC[C@H](O)CC3)n2n1 [Compound 248]
30 | 1000 to 10000 | ≤ 100 | COC[C@H](C)Nc1ncc2c(-c3cn(C)nn3)cc([C@H]3CC[C@H](O)CC3)n2n1 [Compound 250, (trans)-4-(2-(((S)-1-methoxypropan-2-yl)amino)-5-(1-methyl-1H-1,2,3-triazol-4-yl)pyrrolo[2,1-f][1,2,4]triazin-7-yl)cyclohexanol]
31 | 100 to 1000 | ≤ 100 | COC[C@H](C)Nc1ncc2c(-c3ccc4c(c3)CC(=O)N4)cc([C@H]3CC[C@H](O)CC3)n2n1 [Compound 251]
32 | 100 to 1000 | ≤ 100 | COC[C@H](C)Nc1ncc2c(-c3ccc(N4CCOCC4)nc3)cc([C@H]3CC[C@H](O)CC3)n2n1 [Compound 254]
33 | 1000 to 10000 | ≤ 100 | COC[C@H](C)Nc1ncc2c(-c3ccc(C)cn3)cc([C@H]3CC[C@H](O)CC3)n2n1 [Compound 258]

From patent US11040981B2, “Pyrrolotriazine compounds and methods of inhibiting TAM kinases” (Syros Pharmaceuticals, Inc., priority 2017, dated 2021)
